The values that follow come from paper PMC3597687 (Nucleic Acids Research, 2013).

Each structure is given as a SMILES string.

One assay addresses T1, LysMSs (S. solfataricus LysM) (Saccharolobus solfataricus, UniProt Q980W9).
T1 sequence (Q980W9 1-142): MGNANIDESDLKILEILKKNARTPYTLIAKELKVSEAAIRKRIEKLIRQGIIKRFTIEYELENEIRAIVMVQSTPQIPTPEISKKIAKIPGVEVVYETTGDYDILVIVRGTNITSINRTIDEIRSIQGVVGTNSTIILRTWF
Briefly: EMSA, effect on LysM binding to […]-labelled gltB operator DNA. The settings on record: gltB control region 167-bp fragment; effector 5 mM; 250 nM LysM.
In the case of `NC(=O)CC[C@H](N)C(=O)O` [L-glutamine], the “EMSA, effect on LysM binding to 32P-labelled gltB operator DNA” value (shortened to “EMSA, effect on LysM binding”) is “arginine, glutamine, isoleucine, leucine, methionine and valine also specifically reduce LysM binding”. `CC[C@H](C)[C@H](N)C(=O)O` [L-isoleucine]: the “EMSA, effect on LysM binding” value was “arginine, glutamine, isoleucine, leucine, methionine and valine also specifically reduce LysM binding”. Consider `CC(C)C[C@H](N)C(=O)O` [L-leucine], for which the “EMSA, effect on LysM binding” value was “arginine, glutamine, isoleucine, leucine, methionine and valine also specifically reduce LysM binding”.

As to `CSCC[C@H](N)C(=O)O` [L-methionine], the “EMSA, effect on LysM binding” value is “arginine, glutamine, isoleucine, leucine, methionine and valine also specifically reduce LysM binding”.

In the case of `CC(C)[C@H](N)C(=O)O` [L-valine], the “EMSA, effect on LysM binding” value is “arginine, glutamine, isoleucine, leucine, methionine and valine also specifically reduce LysM binding”.

The same assay, now with this note: gltB control region 167-bp fragment; weak effector, mM range.
Consider `N=C(N)NOCC[C@H](N)C(=O)O` [L-canavanine], for which the “EMSA, effect on LysM binding” value is “The effect of L-canavanine and L-citrulline was less pronounced”. For `NC(=O)NCCC[C@H](N)C(=O)O` [L-citrulline], the “EMSA, effect on LysM binding” value was “The effect of L-canavanine and L-citrulline was less pronounced”.
